Columns and labels:
Format in all cases: cell-based, human
[1] = tested on: NCI 60 cancer cell line panel; assay: NCI60 screen (SRB), all cell lines; conditions: over the 60-cell line panel; one dose 10 µM; 48 h
HL-60 (TB) (Leukemia) = assay: NCI60 screen (SRB); conditions: HL-60 (TB); one dose 10 µM; 48 h
MOLT-4 (Leukemia) = assay: NCI60 screen (SRB); conditions: one dose 10 µM, 48 h
SR (Leukemia) = assay: NCI60 screen (SRB); conditions: one dose 10 µM, 48 h
[2] = tested on: EKVX (Non-Small Cell Lung Cancer); assay: NCI60 screen (SRB); conditions: one dose 10 µM, 48 h
[3] = tested on: HOP-62 (Non-Small Cell Lung Cancer); assay: NCI60 screen (SRB); conditions: one dose 10 µM, 48 h
[4] = tested on: HOP-92 (Non-Small Cell Lung Cancer); assay: NCI60 screen (SRB); conditions: one dose 10 µM, 48 h
[5] = tested on: NCI-H460 (Non-Small Cell Lung Cancer); assay: NCI60 screen (SRB); conditions: one dose 10 µM, 48 h
[6] = tested on: NCI-H522 (Non-Small Cell Lung Cancer); assay: NCI60 screen (SRB); conditions: one dose 10 µM, 48 h
COLO 205 (Colon Cancer) = assay: NCI60 screen (SRB); conditions: one dose 10 µM, 48 h
HCC-2998 (Colon Cancer) = assay: NCI60 screen (SRB); conditions: one dose 10 µM, 48 h
HCT-15 (Colon Cancer) = assay: NCI60 screen (SRB); conditions: one dose 10 µM, 48 h
HT29 (Colon Cancer) = assay: NCI60 screen (SRB); conditions: one dose 10 µM, 48 h
KM12 (Colon Cancer) = assay: NCI60 screen (SRB); conditions: one dose 10 µM, 48 h
SF-268 (CNS Cancer) = assay: NCI60 screen (SRB); conditions: one dose 10 µM, 48 h
SF-295 (CNS Cancer) = assay: NCI60 screen (SRB); conditions: one dose 10 µM, 48 h
SF-539 (CNS Cancer) = assay: NCI60 screen (SRB); conditions: one dose 10 µM, 48 h
SNB-19 (CNS Cancer) = assay: NCI60 screen (SRB); conditions: one dose 10 µM, 48 h
SNB-75 (CNS Cancer) = assay: NCI60 screen (SRB); conditions: one dose 10 µM, 48 h
U251 (CNS Cancer) = assay: NCI60 screen (SRB); conditions: one dose 10 µM, 48 h
LOX IMVI (Melanoma) = assay: NCI60 screen (SRB); conditions: one dose 10 µM, 48 h
MALME-3M (Melanoma) = assay: NCI60 screen (SRB); conditions: one dose 10 µM, 48 h
M14 (Melanoma) = assay: NCI60 screen (SRB); conditions: one dose 10 µM, 48 h
SK-MEL-28 (Melanoma) = assay: NCI60 screen (SRB); conditions: one dose 10 µM, 48 h
IGROV1 (Ovarian Cancer) = assay: NCI60 screen (SRB); conditions: one dose 10 µM, 48 h
OVCAR-3 (Ovarian Cancer) = assay: NCI60 screen (SRB); conditions: one dose 10 µM, 48 h
OVCAR-4 (Ovarian Cancer) = assay: NCI60 screen (SRB); conditions: one dose 10 µM, 48 h
OVCAR-5 (Ovarian Cancer) = assay: NCI60 screen (SRB); conditions: one dose 10 µM, 48 h
OVCAR-8 (Ovarian Cancer) = assay: NCI60 screen (SRB); conditions: one dose 10 µM, 48 h
[7] = tested on: NCI/ADR-RES (Ovarian Cancer); assay: NCI60 screen (SRB); conditions: one dose 10 µM, 48 h
SK-OV-3 (Ovarian Cancer) = assay: NCI60 screen (SRB); conditions: one dose 10 µM, 48 h
786-0 (Renal Cancer) = assay: NCI60 screen (SRB); conditions: one dose 10 µM, 48 h
A498 (Renal Cancer) = assay: NCI60 screen (SRB); conditions: one dose 10 µM, 48 h
ACHN (Renal Cancer) = assay: NCI60 screen (SRB); conditions: one dose 10 µM, 48 h
CAKI-1 (Renal Cancer) = assay: NCI60 screen (SRB); conditions: one dose 10 µM, 48 h
RXF 393 (Renal Cancer) = assay: NCI60 screen (SRB); conditions: one dose 10 µM, 48 h
UO-31 (Renal Cancer) = assay: NCI60 screen (SRB); conditions: one dose 10 µM, 48 h
PC-3 (Prostate Cancer) = assay: NCI60 screen (SRB); conditions: one dose 10 µM, 48 h
BT-549 (Breast Cancer) = assay: NCI60 screen (SRB); conditions: one dose 10 µM, 48 h
T-47D (Breast Cancer) = assay: NCI60 screen (SRB); conditions: one dose 10 µM, 48 h
[8] = tested on: MDA-MB-468 (Breast Cancer); assay: NCI60 screen (SRB); conditions: one dose 10 µM, 48 h

**Q.** For COc1ccc(/C=C/C(c2cc(OC)c(OC)c(OC)c2)n2cncn2)cc1 (stereo not shown) [Compound 22a, (E)-1-(3-(4-Methoxyphenyl)-1-(3,4,5-trimethoxyphenyl)allyl)-1H-1,2,4-triazole], which mean growth percent [1] is on record?
**A.** Its mean growth percent is 41.9%.

**Q.** And the growth percent (HL-60 (TB) (Leukemia))?
**A.** The growth percent was −17.94%.

**Q.** What about the growth percent (MOLT-4 (Leukemia)) of the same compound?
**A.** The growth percent was 39.43%.

**Q.** What about the growth percent (SR (Leukemia)) of the same compound?
**A.** Its growth percent is 18.93%.

**Q.** What about the growth percent [2] of the same compound?
**A.** The growth percent was 66.04%.

**Q.** And the growth percent [3]?
**A.** The growth percent was 41.84%.

**Q.** And the growth percent [4]?
**A.** The growth percent was 40.32%.

**Q.** What about the growth percent [5] of the same compound?
**A.** Its growth percent is 22.14%.

**Q.** What about the growth percent [6] of the same compound?
**A.** Its growth percent is 28.37%.

**Q.** What about the growth percent (COLO 205 (Colon Cancer)) of the same compound?
**A.** The growth percent was 30.72%.

**Q.** And the growth percent (HCC-2998 (Colon Cancer))?
**A.** The growth percent was 84.15%.

**Q.** What about the growth percent (HCT-15 (Colon Cancer)) of the same compound?
**A.** Its growth percent is 31.14%.

**Q.** And the growth percent (HT29 (Colon Cancer))?
**A.** Its growth percent is 4.96%.

**Q.** What about the growth percent (KM12 (Colon Cancer)) of the same compound?
**A.** The growth percent was 30.66%.

**Q.** What about the growth percent (SF-268 (CNS Cancer)) of the same compound?
**A.** The growth percent was 57.07%.

**Q.** And the growth percent (SF-295 (CNS Cancer))?
**A.** The growth percent was 22.52%.

**Q.** And the growth percent (SF-539 (CNS Cancer))?
**A.** Its growth percent is 56.52%.

**Q.** And the growth percent (SNB-19 (CNS Cancer))?
**A.** The growth percent was 49.01%.

**Q.** What about the growth percent (SNB-75 (CNS Cancer)) of the same compound?
**A.** The growth percent was 51.27%.

**Q.** And the growth percent (U251 (CNS Cancer))?
**A.** Its growth percent is 31.77%.

**Q.** What about the growth percent (LOX IMVI (Melanoma)) of the same compound?
**A.** Its growth percent is 49.98%.

**Q.** And the growth percent (MALME-3M (Melanoma))?
**A.** The growth percent was 61.34%.

**Q.** And the growth percent (M14 (Melanoma))?
**A.** Its growth percent is 17.86%.

**Q.** What about the growth percent (SK-MEL-28 (Melanoma)) of the same compound?
**A.** The growth percent was 62.59%.

**Q.** And the growth percent (IGROV1 (Ovarian Cancer))?
**A.** The growth percent was 64.61%.

**Q.** And the growth percent (OVCAR-3 (Ovarian Cancer))?
**A.** Its growth percent is 9.06%.

**Q.** What about the growth percent (OVCAR-4 (Ovarian Cancer)) of the same compound?
**A.** Its growth percent is 96.82%.

**Q.** What about the growth percent (OVCAR-5 (Ovarian Cancer)) of the same compound?
**A.** Its growth percent is 90.16%.

**Q.** And the growth percent (OVCAR-8 (Ovarian Cancer))?
**A.** The growth percent was 52.16%.

**Q.** What about the growth percent [7] of the same compound?
**A.** The growth percent was 36.28%.

**Q.** What about the growth percent (SK-OV-3 (Ovarian Cancer)) of the same compound?
**A.** Its growth percent is 35.55%.

**Q.** What about the growth percent (786-0 (Renal Cancer)) of the same compound?
**A.** Its growth percent is 39.65%.

**Q.** What about the growth percent (A498 (Renal Cancer)) of the same compound?
**A.** The growth percent was 36.38%.

**Q.** What about the growth percent (ACHN (Renal Cancer)) of the same compound?
**A.** Its growth percent is 57.45%.

**Q.** And the growth percent (CAKI-1 (Renal Cancer))?
**A.** The growth percent was 51.61%.

**Q.** What about the growth percent (RXF 393 (Renal Cancer)) of the same compound?
**A.** The growth percent was 46.51%.

**Q.** And the growth percent (UO-31 (Renal Cancer))?
**A.** Its growth percent is 64.39%.

**Q.** What about the growth percent (PC-3 (Prostate Cancer)) of the same compound?
**A.** Its growth percent is 31.20%.

**Q.** What about the growth percent (BT-549 (Breast Cancer)) of the same compound?
**A.** Its growth percent is 45.45%.

**Q.** And the growth percent (T-47D (Breast Cancer))?
**A.** The growth percent was 30.79%.

**Q.** And the growth percent [8]?
**A.** Its growth percent is 40.88%.

**Q.** What does the source list for COc1ccc(C2CC(n3ccnc3)c3cc(OC)c(OC)c(OC)c32)cc1O (stereo not shown) [Compound 27a, 5-(3-(1H-Imidazol-1-yl)-5,6,7-trimethoxy-2,3-dihydro-1H-inden-1-yl)-2-methoxyphenol]?
**A.** mean growth percent [1]: 79.2%; growth percent (HL-60 (TB) (Leukemia)): 83.57%; growth percent (MOLT-4 (Leukemia)): 90.04%; growth percent (SR (Leukemia)): 35.42%; growth percent [2]: 100.83%; growth percent [3]: 80.77%; growth percent [4]: 59.58%; growth percent [5]: 78.74%; growth percent [6]: 50.13%; growth percent (COLO 205 (Colon Cancer)): 106.99%; growth percent (HCC-2998 (Colon Cancer)): 99.22%; growth percent (HCT-15 (Colon Cancer)): 59.92%; growth percent (HT29 (Colon Cancer)): 101.76%; growth percent (KM12 (Colon Cancer)): 50.59%; growth percent (SF-268 (CNS Cancer)): 89.96%; growth percent (SF-295 (CNS Cancer)): 57.51%; growth percent (SF-539 (CNS Cancer)): 89.80%; growth percent (SNB-19 (CNS Cancer)): 93.73%; growth percent (SNB-75 (CNS Cancer)): 90.16%; growth percent (U251 (CNS Cancer)): 80.36%; growth percent (LOX IMVI (Melanoma)): 86.38%; growth percent (MALME-3M (Melanoma)): 73.18%; growth percent (M14 (Melanoma)): 73.08%; growth percent (SK-MEL-28 (Melanoma)): 78.29%; growth percent (IGROV1 (Ovarian Cancer)): 82.43%; growth percent (OVCAR-3 (Ovarian Cancer)): 57.06%; growth percent (OVCAR-4 (Ovarian Cancer)): 100.34%; growth percent (OVCAR-5 (Ovarian Cancer)): 106.81%; growth percent (OVCAR-8 (Ovarian Cancer)): 89.25%; growth percent [7]: 93.87%; growth percent (SK-OV-3 (Ovarian Cancer)): 86.31%; growth percent (786-0 (Renal Cancer)): 91.67%; growth percent (A498 (Renal Cancer)): 88.34%; growth percent (ACHN (Renal Cancer)): 86.36%; growth percent (CAKI-1 (Renal Cancer)): 74.50%; growth percent (RXF 393 (Renal Cancer)): 70.77%; growth percent (UO-31 (Renal Cancer)): 79.93%; growth percent (PC-3 (Prostate Cancer)): 60.69%; growth percent (BT-549 (Breast Cancer)): 90.36%; growth percent (T-47D (Breast Cancer)): 94.34%; growth percent [8]: 78.64%

Reference: publication PMC11769294, “(E)-1-(3-(3-Hydroxy-4-Methoxyphenyl)-1-(3,4,5-Trimethoxyphenyl)allyl)-1H-1,2,4-Triazole and Related Compounds: Their Synthesis and Biological Evaluation as Novel Antimitotic Agents Targeting Breast Cancer” (Pharmaceuticals, 2025)
